# Laboratory results: patent US20220031697A1, “Dose and regimen for an hdm2-p53 interaction inhibitor in hematological tumors” (Novartis AG, priority 2017, published 2022)
# Like-named read-outs stand apart in the source and are kept apart here.
# Legend:
# [1] = test system: advanced TP53 wild-type (WT) leukemias; type: in vivo, human
# [2] = test system: human SJSA-1 (osteosarcoma) xenograft; assay: TGI PK/PD modelling, xenograft rat; type: in vivo; details: human SJSA-1 xenograft rat
# Method: Line at 120 ng/mL=95% tumor regression from human SJSA-1 xenograft rat. […] Calculation of average dose level (mg/day):
# (§1) To further support the 45 mg for HDM201, compartmental PK modeling was used to estimate the individual average concentration during cycle 1 for patients with hematological tumors treated at 45 mg on regimen 2C (FIG. 2). For all patients with measured PK, the estimated average drug concentrations during cycle 1 were above the most conservative average tumor stasis concentration of about 41 ng/mL per cycle determined from PKPD modeling of preclinical data (human SJSA-1 xenograft rat model).
# [3] = Clinical PK; type: in vivo, human
# Method: Pharmacokinetic data have been evaluated throughout the course of the clinical study. […] Furthermore, an integrated analysis of all available HDM201 concentrations was conducted using a population approach. The PK of HDM201 was best described by a 1-compartment PK model with a delayed zero- and first-order absorption process, and a linear clearance. Body weight was identified as a statistically significant covariate on apparent central volume of distribution (Vc/F), in which Vc/F increased with increasing body weight.
# as §1
# [4] = test system: human HSAX2655 (liposarcoma) PDX; assay: TGI PK/PD modelling, PDX rat; type: in vivo
# [5] = Regimen 1A 250 mg, cut-off 15 Jan. 2018
# [6] = Regimen 1A 250 mg, n=10, cut-off 15 Jan. 2018
# [7] = Regimen 1B 120 mg, n=23, cut-off 15 Jan. 2018
# [8] = Regimen 2C 45 mg, n=25, cut-off 15 Jan. 2018
structure (smiles),measurement,setting,value
"COc1ncc(-c2nc3c(n2C(C)C)[C@H](c2ccc(Cl)cc2)N(c2cc(Cl)cn(C)c2=O)C3=O)c(OC)n1 [HDM201, (S)-5-(5-Chloro-1-methyl-2-oxo-1,2-dihydro-pyridin-3-yl)-6-(4-chloro-phenyl)-2-(2,4-dimethoxy-pyrimidin-5-yl)-1-isopropyl-5,6-dihydro-1H-pyrrolo[3,4-d]imidazol-4-one]",Count recovery time from C1D1,"[1]; CR patient, 1A 250 mg",48 days
same,Duration of CR/CRi,"[1]; CR patient, 1A 250 mg",50 days
same,Time to CR/CRi,"[1]; CR patient, 1A 250 mg",7 weeks
same,Count recovery time from C1D1,"[1]; CR patient, 1A 400 mg",40 days
same,Duration of CR/CRi,"[1]; CR patient, 1A 400 mg",23 days
same,Time to CR/CRi,"[1]; CR patient, 1A 400 mg",6 weeks
same,Count recovery time from C1D1,"[1]; CR patient, 2C 45 mg",32 days
same,Duration of CR/CRi,"[1]; CR patient, 2C 45 mg",152 days
same,Time to CR/CRi,"[1]; CR patient, 2C 45 mg",5 weeks
same,Duration of CR/CRi,"[1]; CRi patient, 1B 150 mg",51 days
same,Time to CR/CRi,"[1]; CRi patient, 1B 150 mg",11 weeks
same,Duration of CR/CRi,[1]; [5],50 to 125 days
same,Time to CR/CRi,[1]; [5],24 to 50 days
same,CR (patients),[1]; [6],1
same,CRi (patients),[1]; [6],1
same,BOR: CR,[1]; Regimen 1A (n = 15),2 (13) n (%)
same,BOR: CRi,[1]; Regimen 1A (n = 15),0 (0) n (%)
same,ORR (CR + CRi + PR),[1]; Regimen 1A (n = 15),2 (13) n (%)
same,Duration of CR/CRi,"[1]; Regimen 1B 120 mg, DoR censored, cut-off 15 Jan. 2018",1 day (DoR
same,Time to CR/CRi,"[1]; Regimen 1B 120 mg, cut-off 15 Jan. 2018",30 days
same,CR (patients),[1]; [7],1
same,CRi (patients),[1]; [7],0
same,BOR: CR,[1]; Regimen 1B (n = 6),0 (0) n (%)
same,BOR: CRi,[1]; Regimen 1B (n = 6),1 (17) n (%)
same,ORR (CR + CRi + PR),[1]; Regimen 1B (n = 6),1 (17) n (%)
same,Clinical activity,"[1]; Regimen 2A (2 weeks on/2 week off), doses up to 30 mg",without evidence of clinically meaningful activity
same,BOR: CR,[1]; Regimen 2A (n = 7),0 (0) n (%)
same,BOR: CRi,[1]; Regimen 2A (n = 7),0 (0) n (%)
same,ORR (CR + CRi + PR),[1]; Regimen 2A (n = 7),0 (0) n (%)
same,Count recovery time of the patient with CR,[1]; Regimen 2C 45 mg,32 days
same,Overall response rate,"[1]; Regimen 2C 45 mg, 7 patients with post-baseline assessment",57.1%
same,Time to CR/CRi,"[1]; Regimen 2C 45 mg, cut-off 15 Jan. 2018",34 to 49 days
same,CR (patients),[1]; [8],2
same,CRi (patients),[1]; [8],4
same,Duration of CRi,"[1]; Regimen 2C 45 mg, one of three CRi patients",40 days
same,Duration of complete response,"[1]; Regimen 2C 45 mg, one patient",152 days
same,BOR: CR,[1]; Regimen 2C (n = 7),1 (14) n (%)
same,BOR: CRi,[1]; Regimen 2C (n = 7),3 (43) n (%)
same,ORR (CR + CRi + PR),[1]; Regimen 2C (n = 7),4 (57) n (%)
same,Best percentage change in blast percentage in bone marrow (BM) aspirate,"[1]; Regimen 2C, AML patients, FIG. 1",strong efficacy
same,BOR: CR,[1]; Total (N = 35),3 (9) n (%)
same,BOR: CRi,[1]; Total (N = 35),4 (11) n (%)
same,ORR (CR + CRi + PR),[1]; Total (N = 35),7 (20) n (%)
same,Concentration for 95% tumor regression,[2],120 ng/mL
same,Estimated average drug concentration during cycle 1,"[3]; 45 mg regimen 2C, all patients with measured PK, compartmental PK modeling",> 41 ng/mL
same,Dose proportionality of PK (AUClast and Cmax),"[3]; over the dose range studied, preliminary assessment",approximately dose proportional
same,Average concentration for tumor stasis,[4],19 ng/mL
